According to PMC10320002, “In vitro antiproliferative, anti-inflammatory effects and molecular docking studies of natural compounds isolated from Sarcocephalus pobeguinii (Hua ex Pobég)” (Frontiers in Pharmacology, 2023):
“And” between values parts separate entries of the source, which are not always exact repeats. Identical values can stand only once. Like-named read-outs stand apart in the source and are kept apart here.

Columns and labels:
Vero cells = experiment: MTT antiproliferation assay, non-cancerous Vero cells; type: cell-based, African green monkey; conditions: for IC50: Chlorocebus sabaeus, Vero, 48 h, MTT
Experimental: (§1) Cancerous cell lines (MCF-7: human breast adenocarcinoma cells; HepG2: human hepatocellular carcinoma cells; Caco-2: human epithelial colorectal adenocarcinoma cells; A549: human epithelial lung adenocarcinoma cells), obtained from the American Type Culture Collection (ATCC) (Rockville, MD, United States of America), were cultured in Dulbecco’s Modified Eagle’s Medium (DMEM) high glucose (4.5 g/L) containing L-glutamine (4 mM) and sodium-pyruvate (Hyclone™) supplemented with 10% (v/v) fetal bovine serum (FBS) (Capricorn Scientific GmbH, South America), and incubated at 37°C with 5% CO2 in a humidified environment. African green monkey (Vero) kidney cells (also obtained from ATCC), a non-cancerous cell line, were grown in DMEM high glucose (4.5 g/L) containing L-glutamine (Lonza, Belgium) and supplemented with 5% FBS (Capricorn Scientific GmbH, South America) and 1% gentamicin (Virbac, RSA) in the same environment as cancer cells. The RAW 264.7 murine macrophage cells (obtained from ATCC) were cultured in DMEM high glucose (4.5 g/L) containing L-glutamine (Lonza, Belgium), supplemented with 10% FBS (Capricorn Scientific GmbH, South America) and 1% penicillin/streptomycin/fungizone (PSF) solution, and kept at 37°C in a 5% CO2 humidified environment.
(§2) The cancerous and non-cancerous cells were seeded at a density of 10^4 cells per well in 96-well microtiter plates, and they were incubated overnight at 37°C with 5% CO2 in a 5% CO2 humidified environment in order to allow the attachment of cells at the bottom of the plates. Then, the cells were exposed to increasing concentrations of compounds (100, 50, 25, 10 and 5 μg/mL) dissolved in dimethyl sulfoxide (DMSO) and further diluted in fresh culture medium. In this assay, the final concentration of DMSO in the culture medium was 0.5% used as negative control while doxorubicin hydrochloride (Pfizer, United States of America) was used as a positive control. The culture plates were incubated for 48 h at 37°C in a 5% CO2 humidified environment, after which the culture medium was discarded, and replaced by 200 µL of fresh culture medium with 30 µL of 3-(4,5-dimethylthiazol-2-yl)-2,5-diphenyl-2H-tetrazolium bromide (MTT) (5 mg/mL) dissolved in phosphate buffered saline ([Mosmann, 1983]). After 4 h of incubation, the medium was gently removed, and the formazan crystals were solubilized in 50 µL of DMSO. The absorbance was measured at 570 nm after shaking for 1 min on a microplate reader (Synergy Multi-Mode Reader, BioTek, Winooski, United States of America).
(§3) The cell viability rate was determined at each concentration of the compound as a percentage of cells treated with DMSO at 0.5% used as negative control. […] The selectivity index (Supporting Material) values were calculated for each compound by dividing the IC50 of non-cancerous cells by the IC50 of cancerous cells in the same units ([Mfotie Njoya et al., 2018]; [Mfotie Njoya et al., 2020]).

HepG2 cells = experiment: MTT antiproliferation assay, HepG2; type: cell-based, human; conditions: for IC50: Homo sapiens, HepG2, 48 h, MTT; for SI values HepG2: IC50 of non-cancerous Vero cells divided by IC50 of HepG2
Experimental: as §1, §2, §3

A549 cells = experiment: MTT antiproliferation assay, A549; type: cell-based, human; conditions: for IC50: Homo sapiens, A549, 48 h, MTT; for SI values A549: IC50 of non-cancerous Vero cells divided by IC50 of A549
Experimental: as §1, §2, §3

15-LOX = molecular target: T1, 15-LOX (Glycine max, UniProt P08170); experiment: Soybean 15-LOX inhibitory assay (FOX); type: biochemical; conditions: linoleic acid 140 μM, pH 7.4, 25°C
T1 construct: purchased Merck, Darmstadt, Germany
T1 sequence (P08170 1-839): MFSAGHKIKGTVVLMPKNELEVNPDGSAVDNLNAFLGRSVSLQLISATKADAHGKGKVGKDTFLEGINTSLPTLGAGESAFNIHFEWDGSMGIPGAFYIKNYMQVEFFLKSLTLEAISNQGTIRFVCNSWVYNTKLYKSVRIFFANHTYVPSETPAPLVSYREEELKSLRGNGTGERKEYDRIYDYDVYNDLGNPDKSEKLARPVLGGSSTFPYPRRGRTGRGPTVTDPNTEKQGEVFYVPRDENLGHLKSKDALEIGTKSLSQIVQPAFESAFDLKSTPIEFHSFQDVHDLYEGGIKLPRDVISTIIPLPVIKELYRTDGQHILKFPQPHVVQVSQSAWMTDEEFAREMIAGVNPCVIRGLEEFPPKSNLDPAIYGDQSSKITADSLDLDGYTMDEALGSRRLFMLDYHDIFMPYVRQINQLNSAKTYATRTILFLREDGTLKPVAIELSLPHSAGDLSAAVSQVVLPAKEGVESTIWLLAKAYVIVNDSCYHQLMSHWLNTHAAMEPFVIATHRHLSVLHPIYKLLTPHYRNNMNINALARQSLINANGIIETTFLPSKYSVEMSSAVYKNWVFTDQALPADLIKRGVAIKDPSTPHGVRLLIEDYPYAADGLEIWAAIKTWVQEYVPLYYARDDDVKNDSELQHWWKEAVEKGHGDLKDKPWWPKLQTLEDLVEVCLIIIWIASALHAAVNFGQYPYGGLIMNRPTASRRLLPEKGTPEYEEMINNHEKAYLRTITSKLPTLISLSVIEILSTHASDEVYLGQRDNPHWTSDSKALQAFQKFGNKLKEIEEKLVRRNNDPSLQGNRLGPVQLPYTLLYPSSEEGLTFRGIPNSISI
Experimental: This assay is based on the formation of the Fe^3+/xylenol orange (FOX) complex with maximal absorption at 560 nm ([Pinto et al., 2007]). Forty microliters of 15-LOX (final concentration: 200 UI/mL) from Glycine max (Merck, Darmstadt, Germany) was incubated with 20 µL of tested samples (100, 50, 25, 10, and 5 μg/mL) at 25°C for 5 min, with DMSO at 10% (v/v) being used as negative control. Thereafter, 40 µL of linoleic acid (final concentration, 140 μM) prepared in Tris-HCl buffer (50 mM, pH 7.4) was added, and the plates were further incubated at 25°C for 20 min in the dark. The assay was terminated by adding 100 μL of FOX reagent [sulfuric acid (30 mM), xylenol orange (100 μM), ferrous II) sulfate (100 μM), dissolved in methanol/water (9:1)], followed by the incubation of the plates at 25°C for 30 min in the dark. Finally, the absorbance was measured at 560 nm on a microplate reader (Epoch, BioTek, Winooski, United States of America). The blanks were made in the same way as tested samples except that the substrate was added after the FOX reagent. The 15-LOX inhibitory activity was calculated by using the following formula: 15−LOX inhibitory activity %=100−Abs sample−Abs blank/Abs negative control−Abs blank×100 (1)

[1] = read-out: IC50 values 15-LOX (converted)

Structure (SMILES)	IC50 (Vero cells)	IC50 (HepG2 cells)	SI values HepG2 (HepG2 cells)	IC50 (A549 cells)	SI values A549 (A549 cells)	IC50 (15-LOX; IC50 values 15-LOX)	selectivity (SI) for all cancer cells towards non-cancerous Vero cells (Vero cells; all cancer types (MCF-7, HepG2, Caco-2, A549))	IC50 (15-LOX; [1]) [µM]	selectivity (SI) towards non-cancerous Vero cells (Vero cells; cancer cells except A549 cells)
CC1(C)CC[C@]2(C(=O)O)CC[C@]3(C)C(=CC[C@@H]4[C@@]5(C)CC[C@H](O)[C@@](C)(CO)[C@@H]5CC[C@]43C)[C@@H]2C1 [Compound 2, hederagenin]	45.5 µg/mL and 96.3 µM	24.9 µg/mL and 52.6 µM	1.83	40.1 µM and 19 µg/mL	2.40	28.4 µM and 28.2 µM	–	–	–
C[C@@H]1CC[C@]2(C(=O)O)CC[C@]3(C(=O)O)C(=CCC4[C@@]5(C)CC[C@H](O[C@@H]6O[C@H](C)[C@@H](O)[C@H](O)[C@H]6O)C(C)(C)C5CC[C@]43C)C2[C@H]1C (stereo partly drawn) [Compound 9, quinovic acid 3-O-[β-D-quinovopyranoside]]	47.1 µg/mL and 74.4 µM	47.2 µg/mL and 74.6 µM	0.99	69.9 µM and 44.2 µg/mL	1.06	–	≤ 1	118	–
C[C@]12COCC=C1C[C@H]1c3[nH]c4ccccc4c3CCN1C2=O [Compound 10, latifoliamide C]	65.8 µg/mL and 213 µM	54.5 µg/mL and 177 µM	1.20	143 µM and 44.2 µg/mL	1.49	–	–	253	–
C[C@@H]1CC[C@]2(C(=O)O)CC[C@]3(C(=O)O)C(=CCC4[C@@]5(C)CC[C@H](O[C@H]6O[C@H](C)[C@@H](O)[C@H](O)[C@H]6O)C(C)(C)C5CC[C@]43C)C2[C@H]1C (stereo partly drawn) [Compound 6, quinovic acid 3-O-[α-D-quinovopyranoside]]	6.21 µg/mL and 9.81 µM	41.9 µg/mL and 66.3 µM	0.14	3.08 µM and 1.96 µg/mL	3.17	–	–	> 158	≤ 1
